# Measured values as given in article PMC11243196, “Identification of Benzothiazoles Bearing 1,3,4-Thiadiazole as Antiproliferative Hybrids Targeting VEGFR-2 and BRAF Kinase: Design, Synthesis, BIO Evaluation and In Silico Study” (Molecules, 2024).
# Where two headings read alike, the source gives them in different places.
# Tests used:
# HCT-116 = assay: MTT antiproliferative assay, HCT-116; format: cell-based; settings: Homo sapiens, HCT-116, read-out: IC50 (µM) HCT-116
# WI-38 cells = assay: Cytotoxicity against normal human cells, WI-38; format: cell-based; settings: normal lung cell line WI-38
# VEGFR-2 = VEGFR-2 (Homo sapiens, UniProt P35968); assay: In vitro VEGFR-2 kinase inhibitory assay; format: biochemical
# VEGFR-2, sequence (P35968 20-1356): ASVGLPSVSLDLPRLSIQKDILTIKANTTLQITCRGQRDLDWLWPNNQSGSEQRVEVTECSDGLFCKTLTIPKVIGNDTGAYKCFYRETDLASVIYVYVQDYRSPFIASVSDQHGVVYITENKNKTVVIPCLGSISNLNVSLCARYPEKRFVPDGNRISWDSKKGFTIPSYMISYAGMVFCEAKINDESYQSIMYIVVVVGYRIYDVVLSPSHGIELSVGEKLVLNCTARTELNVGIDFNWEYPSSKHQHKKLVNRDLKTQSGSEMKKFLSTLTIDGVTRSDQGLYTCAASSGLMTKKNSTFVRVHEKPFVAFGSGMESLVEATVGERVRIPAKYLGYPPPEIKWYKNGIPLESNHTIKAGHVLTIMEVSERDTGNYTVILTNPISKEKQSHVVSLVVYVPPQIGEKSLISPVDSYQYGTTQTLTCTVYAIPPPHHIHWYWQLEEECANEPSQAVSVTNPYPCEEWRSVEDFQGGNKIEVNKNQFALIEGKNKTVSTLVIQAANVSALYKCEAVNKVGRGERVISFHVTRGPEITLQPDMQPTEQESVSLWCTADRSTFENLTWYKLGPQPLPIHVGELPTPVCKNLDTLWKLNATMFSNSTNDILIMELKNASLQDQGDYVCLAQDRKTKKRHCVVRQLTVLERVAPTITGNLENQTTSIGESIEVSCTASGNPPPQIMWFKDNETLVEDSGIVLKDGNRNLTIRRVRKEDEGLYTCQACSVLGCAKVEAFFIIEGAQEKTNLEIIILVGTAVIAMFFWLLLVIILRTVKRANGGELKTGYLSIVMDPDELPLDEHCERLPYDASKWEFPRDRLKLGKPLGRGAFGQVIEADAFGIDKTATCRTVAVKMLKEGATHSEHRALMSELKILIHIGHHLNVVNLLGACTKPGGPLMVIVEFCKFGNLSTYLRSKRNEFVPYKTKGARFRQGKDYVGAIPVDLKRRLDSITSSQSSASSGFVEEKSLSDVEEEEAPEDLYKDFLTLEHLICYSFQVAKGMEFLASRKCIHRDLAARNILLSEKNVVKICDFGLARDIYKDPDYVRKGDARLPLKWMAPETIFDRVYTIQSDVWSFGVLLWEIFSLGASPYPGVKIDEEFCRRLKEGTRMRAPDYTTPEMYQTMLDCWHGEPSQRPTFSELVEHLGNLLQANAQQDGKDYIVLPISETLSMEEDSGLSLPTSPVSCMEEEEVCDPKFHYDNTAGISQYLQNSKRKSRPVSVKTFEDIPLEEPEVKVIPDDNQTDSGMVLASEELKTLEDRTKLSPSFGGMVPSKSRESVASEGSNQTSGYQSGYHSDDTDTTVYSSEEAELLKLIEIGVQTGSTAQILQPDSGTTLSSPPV
# Procedure: […]. The in vitro assays were carried out as previously described.
# [1] = tested on: HePG-2, HCT-116 and MCF-7 cell lines; assay: MTT antiproliferative assay, range over the three cancer cell lines; format: cell-based; settings: Homo sapiens
# Procedure: Sorafenib was used as a positive control medication.
# As previously documented, the in vitro anticancer efficacy of the produced hybrids was evaluated using an MTT test. The used cell lines was bought from Vacsera (Giza, Egypt).
# MCF-7 = assay: MTT antiproliferative assay, MCF-7; format: cell-based; settings: Homo sapiens, MCF7; breast cancer MCF-7, MTT
# HePG-2 = assay: MTT antiproliferative assay, HePG-2; format: cell-based; settings: Homo sapiens, HepG2; hepatocellular carcinoma HePG-2, MTT
# BRAF (V600E) = BRAF (V600E) (Homo sapiens, UniProt P15056, V600E); assay: In vitro BRAF (V600E) kinase inhibitory assay; format: biochemical
# BRAF (V600E), sequence (P15056 whole entry V600E): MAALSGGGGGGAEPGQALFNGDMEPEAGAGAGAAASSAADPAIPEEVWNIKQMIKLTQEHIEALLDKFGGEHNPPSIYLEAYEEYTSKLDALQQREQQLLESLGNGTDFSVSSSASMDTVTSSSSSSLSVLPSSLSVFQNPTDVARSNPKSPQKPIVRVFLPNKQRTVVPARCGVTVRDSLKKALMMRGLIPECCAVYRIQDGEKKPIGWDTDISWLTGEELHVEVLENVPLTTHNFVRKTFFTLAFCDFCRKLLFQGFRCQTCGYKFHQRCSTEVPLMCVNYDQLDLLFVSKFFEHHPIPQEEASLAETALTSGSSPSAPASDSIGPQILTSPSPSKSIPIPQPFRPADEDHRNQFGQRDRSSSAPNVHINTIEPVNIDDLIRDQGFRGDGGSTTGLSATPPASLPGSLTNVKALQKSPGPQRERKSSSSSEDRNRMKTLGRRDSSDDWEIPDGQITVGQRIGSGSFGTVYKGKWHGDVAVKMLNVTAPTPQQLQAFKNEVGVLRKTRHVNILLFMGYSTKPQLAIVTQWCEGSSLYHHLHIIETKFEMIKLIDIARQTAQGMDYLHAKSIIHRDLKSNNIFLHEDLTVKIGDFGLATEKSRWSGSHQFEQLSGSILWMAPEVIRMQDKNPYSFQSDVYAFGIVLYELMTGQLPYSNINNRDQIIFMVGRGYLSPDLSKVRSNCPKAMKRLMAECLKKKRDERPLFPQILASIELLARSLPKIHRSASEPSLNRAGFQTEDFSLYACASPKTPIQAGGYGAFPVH
# MCF-7 cells [2] = assay: Annexin V-FITC/PI apoptosis detection; format: cell-based, human; settings: 24 h, untreated control 0.89%
# Source text: The level of apoptosis was quantified utilizing the MCF-7 cell lines and Annexin V-FITC/PI apoptosis detection kit, as documented in the literature.
# MCF-7 cells [3] = assay: Cell cycle analysis by DNA flow cytometry (PI); format: cell-based, human
# Procedure: To ascertain the precise cell cycle phase at which our highly promising chemical 4f causes the MCF7 breast cancer cells to cease their progression, we conducted cell cycle analysis and apoptotic experiments utilizing DNA flow cytometry.
# As previously documented, the cell cycle study was conducted on the MCF-7 cell lines, stained with PI and examined using a Calibur flow cytometer.
# PDGFR-β = tested on: PDGFR-β; set-up: method as in PMID 32045054; settings: read-out: IC50 against PDGFR-β; cited from earlier work
# VEGFR-2 in MCF-7 cells = tested on: VEGFR-2 in MCF-7 cells; set-up: method as in PMID 32045054; settings: cited from earlier work
# FGFR-1 = tested on: FGFR-1; set-up: method as in PMID 32045054; settings: read-out: IC50 against FGFR-1; cited from earlier work
# BRAFV600 = settings: read-out: IC50 against BRAFV600; cited from earlier work
# CRAF = settings: read-out: IC50 against CRAF; cited from earlier work
# BRAF^V600E = tested on: BRAF^V600E; set-up: method as in PMID 23906342; settings: read-out: IC50 against BRAF^V600E; cited from earlier work
# [4] = one range for the group 4a, 4f, 4l, 4r over three cancer cell lines, read-out: IC50 values ranging, against three cancer cell lines
# [5] = read-out: IC50 range of the compound over the cancer cell lines
# [6] = range over HePG-2, HCT-116, MCF-7, read-out: IC50 range of the compound over the cancer cell lines
Compound,IC50 (HCT-116) [µM],IC50 (MCF-7) [µM],"IC50 [1, 6] [µM]",IC50 (WI-38 cells) [µM],IC50 (HePG-2) [µM],other results
"O=C(CSc1nnc(NC(=O)Nc2ccccc2)s1)Nc1nc2ccccc2s1 [4a, N-(Benzo[d]thiazol-2-yl)-2-((5-(3-phenylureido)-1,3,4-thiadiazol-2-yl)thio)acetamide]",9.94 ± 0.8,5.91 ± 0.3,,66.2 ± 3.5,12.9 ± 0.9,"IC50 (VEGFR-2): 0.342 µM; IC50 [1, 4]: 3.58 to 15.4 µM; IC50 [1, 5]: 5.91 to 12.9 µM; melting point: 273 to 275 °C; IC50 (BRAF (V600E)): 0.677 µM"
"Cc1ccc(NC(=O)Nc2nnc(SCC(=O)Nc3nc4ccccc4s3)s2)cc1 [4b, N-(Benzo[d]thiazol-2-yl)-2-((5-(3-(p-tolyl)ureido)-1,3,4-thiadiazol-2-yl)thio)acetamide]",61.8 ± 3.3,46.5 ± 2.6,46.5 to 61.8,81 ± 4.2,48.2 ± 2.5,
"COc1ccc(NC(=O)Nc2nnc(SCC(=O)Nc3nc4ccccc4s3)s2)cc1 [4c, N-(Benzo[d]thiazol-2-yl)-2-((5-(3-(4-methoxyphenyl)ureido)-1,3,4-thiadiazol-2-yl)thio)acetamide]",65.5 ± 3.5,54.5 ± 2.9,42.2 to 65.5,91.3 ± 4.6,42.2 ± 2.6,
"O=C(CSc1nnc(NC(=O)Nc2ccc(Cl)cc2)s1)Nc1nc2ccccc2s1 [4d, N-(Benzo[d]thiazol-2-yl)-2-((5-(3-(4-chlorophenyl)ureido)-1,3,4-thiadiazol-2-yl)thio)acetamide]",39.7 ± 2.3,33.6 ± 2,30.2 to 33.6,89.1 ± 4.3,30.2 ± 2.3,
"O=C(CSc1nnc(NC(=O)Nc2ccc(F)cc2)s1)Nc1nc2ccccc2s1 [4e, N-(Benzo[d]thiazol-2-yl)-2-((5-(3-(4-fluorophenyl)ureido)-1,3,4-thiadiazol-2-yl)thio)acetamide]",82.5 ± 4.2,67.1 ± 3.4,63.4 to 82.5,> 100,63.4 ± 3.4,
"O=C(CSc1nnc(NC(=O)Nc2ccc(C(F)(F)F)c(Cl)c2)s1)Nc1nc2ccccc2s1 [4f, N-(Benzo[d]thiazol-2-yl)-2-((5-(3-(3-chloro-4-(trifluoromethyl)phenyl)ureido)-1,3,4-thiadiazol-2-yl)thio)acetamide]",6.21 ± 0.4,2.74 ± 0.1,,41.2 ± 2.4,5.05 ± 0.3,"IC50 (VEGFR-2): 0.071 µM; IC50 [1, 4]: 3.58 to 15.4 µM; IC50 [1, 5]: 2.74 to 5.05 µM; proportion of apoptotic cells (early and late) (MCF-7 cells [2]): 37.83%; Cell Cycle Distribution (%) G2-M (MCF-7 cells [3]; untreated 15.85%): 12.77%; Cell Cycle Distribution (%) S (MCF-7 cells [3]; untreated 26.33%): 22.72%; Cell Cycle Distribution (%) G0-G1 (MCF-7 cells [3]; untreated 57.82%): 64.51%; IC50 (BRAF (V600E)): 0.194 µM"
"O=C(CSc1nnc(NC(=O)Nc2ccc(C(F)(F)F)c(Cl)c2)s1)Nc1nc2ccc(Cl)cc2s1 [4r, 2-((5-(3-(3-Chloro-4-(trifluoromethyl)phenyl)ureido)-1,3,4-thiadiazol-2-yl)thio)-N-(6-chlorobenzo[d]thiazol-2-yl)acetamide]",7.81 ± 0.6,3.85 ± 0.2,,38.8 ± 2.2,8.1 ± 0.6,"IC50 (VEGFR-2): 0.794 µM; IC50 [1, 4]: 3.58 to 15.4 µM; IC50 [1, 5]: 3.85 to 8.1 µM; IC50 (BRAF (V600E)): 1.36 µM"
COc1cc(/C=N/NC(=O)COc2ccc(-c3nc4ccccc4s3)cc2OC)ccc1O [III],,,,,,IC50 (PDGFR-β): 0.08 µM; inhibitory effect on VEGFR-2 in MCF-7 cells (VEGFR-2 in MCF-7 cells): 83%; IC50 (FGFR-1): 0.19 µM
CNC(=O)c1cc(Oc2ccc3nc(NC(=O)Nc4ccc(Cl)c(Cl)c4)sc3c2)ccn1 [IV],,,,,,IC50 (BRAFV600): 0.095 µM; IC50 (CRAF): 0.015 µM
N#Cc1c(Oc2ccc(F)c(NC(=O)Cc3cccc(C(F)(F)F)c3)c2)ccc2nc(NC(=O)C3CC3)sc12 [TAK-632],,,,,,IC50 (BRAF^V600E): 0.0024 µM

# Now from value to compound, other results behind:
IC50 (HCT-116) [µM],IC50 (MCF-7) [µM],"IC50 [1, 6] [µM]",Compound,IC50 (WI-38 cells) [µM],IC50 (HePG-2) [µM],other results
19.6 ± 1.3,16.5 ± 1.2,16.5 to 22.9,"Cc1ccc2nc(NC(=O)CSc3nnc(NC(=O)Nc4ccccc4)s3)sc2c1 [4g, N-(6-Methylbenzo[d]thiazol-2-yl)-2-((5-(3-phenylureido)-1,3,4-thiadiazol-2-yl)thio)acetamide]",79.4 ± 4,22.9 ± 1.8,
56.2 ± 3,40.6 ± 2.3,37.4 to 56.2,"Cc1ccc(NC(=O)Nc2nnc(SCC(=O)Nc3nc4ccc(C)cc4s3)s2)cc1 [4h, N-(6-Methylbenzo[d]thiazol-2-yl)-2-((5-(3-(p-tolyl)ureido)-1,3,4-thiadiazol-2-yl)thio)acetamide]",87.8 ± 4.4,37.4 ± 2.5,
76.7 ± 3.9,59.5 ± 3.1,53.1 to 76.7,"COc1ccc(NC(=O)Nc2nnc(SCC(=O)Nc3nc4ccc(C)cc4s3)s2)cc1 [4i, 2-((5-(3-(4-Methoxyphenyl)ureido)-1,3,4-thiadiazol-2-yl)thio)-N-(6-methylbenzo[d]thiazol-2-yl)acetamide]",45.5 ± 2.6,53.1 ± 2.7,
> 100,84.2 ± 4.2,,"Cc1ccc2nc(NC(=O)CSc3nnc(NC(=O)Nc4ccc(Cl)cc4)s3)sc2c1 [4j, 2-((5-(3-(4-Chlorophenyl)ureido)-1,3,4-thiadiazol-2-yl)thio)-N-(6-methylbenzo[d]thiazol-2-yl)acetamide]",> 100,78.1 ± 3.9,
92 ± 4.6,69.5 ± 3.5,,"Cc1ccc2nc(NC(=O)CSc3nnc(NC(=O)Nc4ccc(F)cc4)s3)sc2c1 [4k, 2-((5-(3-(4-Fluorophenyl)ureido)-1,3,4-thiadiazol-2-yl)thio)-N-(6-methylbenzo[d]thiazol-2-yl)acetamide]",58.5 ± 3.2,64.2 ± 3.7,
13.5 ± 1,9.46 ± 0.6,9.46 to 15.4,"Cc1ccc2nc(NC(=O)CSc3nnc(NC(=O)Nc4ccc(C(F)(F)F)c(Cl)c4)s3)sc2c1 [4l, 2-((5-(3-(3-Chloro-4-(trifluoromethyl)phenyl)ureido)-1,3,4-thiadiazol-2-yl)thio)-N-(6-methylbenzo[d]thiazol-2-yl)acetamide]",47.5 ± 2.7,15.4 ± 1.2,"IC50 [1, 4]: 3.58 to 15.4 µM"
34.4 ± 2.1,28.9 ± 1.9,28.9 to 34.4,"O=C(CSc1nnc(NC(=O)Nc2ccccc2)s1)Nc1nc2ccc(Cl)cc2s1 [4m, N-(6-Chlorobenzo[d]thiazol-2-yl)-2-((5-(3-phenylureido)-1,3,4-thiadiazol-2-yl)thio)acetamide]",74.5 ± 3.8,29.8 ± 2,
44.8 ± 2.5,36.7 ± 2.1,,"Cc1ccc(NC(=O)Nc2nnc(SCC(=O)Nc3nc4ccc(Cl)cc4s3)s2)cc1 [4n, N-(6-Chlorobenzo[d]thiazol-2-yl)-2-((5-(3-(p-tolyl)ureido)-1,3,4-thiadiazol-2-yl)thio)acetamide]",> 100,32.8 ± 2.4,
51.6 ± 2.8,43.5 ± 2.4,,"COc1ccc(NC(=O)Nc2nnc(SCC(=O)Nc3nc4ccc(Cl)cc4s3)s2)cc1 [4o, N-(6-Chlorobenzo[d]thiazol-2-yl)-2-((5-(3-(4-methoxyphenyl)ureido)-1,3,4-thiadiazol-2-yl)thio)acetamide]",26.4 ± 1.8,35 ± 2.4,
71.3 ± 3.7,62.6 ± 3.2,,"O=C(CSc1nnc(NC(=O)Nc2ccc(Cl)cc2)s1)Nc1nc2ccc(Cl)cc2s1 [4p, N-(6-Chlorobenzo[d]thiazol-2-yl)-2-((5-(3-(4-chlorophenyl)ureido)-1,3,4-thiadiazol-2-yl)thio)acetamide]",94.1 ± 4.9,57 ± 3.1,
25.4 ± 1.8,21.7 ± 1.5,21.7 to 27.4,"O=C(CSc1nnc(NC(=O)Nc2ccc(F)cc2)s1)Nc1nc2ccc(Cl)cc2s1 [4q, N-(6-Chlorobenzo[d]thiazol-2-yl)-2-((5-(3-(4-fluorophenyl)ureido)-1,3,4-thiadiazol-2-yl)thio)acetamide]",49.7 ± 2.9,27.4 ± 2.2,
